# In PubChem BioAssay (NCI):
#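 96-well plates; 48 h exposure; 5 concentrations. Endpoints by linear interpolation between flanking doses. Not reached: highest tested concentration assigned. Here, GI50 denotes the concentration required for 50% inhibition of growth. The concentration for full growth arrest is given as TGI.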
# How the values were obtained:
# Assay in all cases: NCI-60 cell line screen, 48 h
# [1] = test system: SK-MEL-5 melanoma
# [2] = test system: HCC-2998 colon
# [3] = test system: A549 NSCLC
# [4] = test system: U251 CNS
# [5] = test system: NCI-H23 lung
# [6] = test system: HL-60(TB) leukemia
# [7] = test system: OVCAR-8 ovarian
# [8] = test system: M14 melanoma
# [9] = test system: UO-31 renal
# [10] = test system: SK-MEL-2 melanoma
# [11] = test system: MALME-3M melanoma
# [12] = test system: K-562 leukemia
# [13] = test system: TK-10 renal
# [14] = test system: NCI-H226 lung
# [15] = test system: NCI-H460 lung
# [16] = test system: ACHN renal
# [17] = test system: OVCAR-5 ovarian
# [18] = test system: COLO 205 colon
# [19] = test system: HS 578T breast
# [20] = test system: OVCAR-3 ovarian
# [21] = test system: SF-268 CNS
# [22] = test system: MDA-MB-231 breast
# [23] = test system: OVCAR-4 ovarian
# [24] = test system: HOP-92 NSCLC
# [25] = test system: SF-295 CNS
# [26] = test system: NCI-H522 lung
# [27] = test system: HT29 colon
# [28] = test system: UACC-257 melanoma
# [29] = test system: KM12 colon
# [30] = test system: CAKI-1 renal
compound,measurement,setting,value
O=C(CSc1nnc(-c2ccc(-c3nc4ccc(Cl)cc4[nH]3)cc2)o1)Nc1ccc(Br)cc1,GI50,[1],2.98 µM
same,TGI,[1],11.1 µM
same,GI50,[2],15.3 µM
same,TGI,[2],46.5 µM
same,GI50,[3],1.79 µM
same,TGI,[3],3.95 µM
same,GI50,[4],1.88 µM
same,TGI,[4],3.82 µM
same,GI50,[5],2 µM
same,TGI,[5],4.49 µM
same,GI50,[6],2.87 µM
same,TGI,[6],11.5 µM
same,GI50,[7],2.17 µM
same,TGI,[7],5.63 µM
same,GI50,[8],3.06 µM
same,TGI,[8],11.1 µM
same,GI50,[9],4.03 µM
same,TGI,[9],16.5 µM
same,GI50,[10],2.98 µM
same,TGI,[10],11.1 µM
same,GI50,[11],1.94 µM
same,TGI,[11],4.84 µM
same,GI50,[12],2.49 µM
same,TGI,[12],11.8 µM
same,GI50,[13],16.5 µM
same,TGI,[13],33.4 µM
same,GI50,[14],1.62 µM
same,TGI,[14],4.58 µM
same,GI50,[15],2.34 µM
same,TGI,[15],6.32 µM
same,GI50,[16],2.4 µM
same,TGI,[16],6.78 µM
same,GI50,[17],3.71 µM
same,TGI,[17],17.5 µM
same,GI50,[18],24.5 µM
same,TGI,[18],> 100 µM
same,GI50,[19],2.62 µM
same,TGI,[19],9.96 µM
same,GI50,[20],3.72 µM
same,TGI,[20],11.7 µM
same,GI50,[21],3.45 µM
same,TGI,[21],16.8 µM
same,GI50,[22],1.76 µM
same,TGI,[22],3.59 µM
same,GI50,[23],4.81 µM
same,TGI,[23],19.3 µM
same,GI50,[24],2.43 µM
same,TGI,[24],9.03 µM
same,GI50,[25],1.93 µM
same,TGI,[25],4.99 µM
same,GI50,[26],1.84 µM
same,TGI,[26],5.01 µM
same,GI50,[27],3.42 µM
same,TGI,[27],13.3 µM
same,GI50,[28],2.97 µM
same,TGI,[28],12.8 µM
same,GI50,[29],6 µM
same,TGI,[29],31.8 µM
same,GI50,[30],2.34 µM
